According to patent US20180155757A1, “IDENTIFICATION OF BACTERIA THAT ARE RESISTANT TO CARBAPENEMS BY MEMBRANE IMPERVIOUSNESS” (BIOMÉRIEUX, priority 2015, published 2018):
Where two headings read alike, the source gives them in different places.

Key:
Test in all cases: Etest MIC of indicator carbapenems on MH II agar without/with PMBN
Type in all cases: cell-based
C. freundii 0403012 = test system: C. freundii 0403012
Method: (§1) The determinations of antibiotic MIC were carried out on solid culture media with the Etest® method. To do this, Etest® strips (bioMérieux, France) were used: • Etest® Imipenem IM 32, and • Etest® Ertapenem ETP 32, and also solid culture media, differing from one another by virtue of their non-inhibitory concentrations of PMBN.
(§2) These solid culture media are prepared in Petri dishes (0=145 mm; V=50 ml) on a base of MH II Agar (Becton Dickinson®, United States), more or less supplemented with PMBN. The PMBN concentrations range from 0 up to concentrations equivalent to one fifth of the MIC of PMBN (⅕ MICPMBN).
(§3) Using a swab and the Retro C80™ rota-plater (bioMérieux, France), the culture media were inoculated with the bacteria, originating from an inoculum of 0.5 McFarland, prepared in 0.85% NaCl solution from colonies subcultured the day before on MH II agar.
(§4) The various Etest® strips are then deposited on the surface of the culture media. After 16 to 20 hours of incubation at 35° C., the MICS were read.
(§5) To do this, imipenem and ertapenem were used as indicator carbapenems. Non-inhibitory concentrations of PMBN, equivalent to concentrations of one tenth ( 1/10), one eighth (⅛) and one fifth (⅕) of the MIC of PMBN, were applied.

[1] = test system: K. pneumoniae 1108002 (KPC-3 producer)
Method: as §1, §2, §3, §4, §5

[2] = test system: S. marcescens 1008175 (IMP-1 producer)
Method: as §1, §2, §3, §4, §5

[3] = test system: E. cloacae 0901026 (KPC-2 producer)
Method: as §1, §2, §3, §4, §5

E. cloacae 9304026 = test system: E. cloacae 9304026
Method: as §1, §2, §3, §4, §5

[4] = test system: K. pneumoniae 1108007 (VIM-1 producer)
Method: as §1, §2, §3, §4, §5

[5] = test system: E. cloacae 1008079 (IMP-1 producer)
Method: as §1, §2, §3, §4, §5

[6] = test system: Enterobacter aerogenes EA 2 (porin+); details: Klebsiella aerogenes
Method: as §1, §2, §3, §4

[7] = test system: Enterobacter aerogenes EA 15038 (porin+)
Method: as §1, §2, §3, §4

[8] = EA 2 (porin+), [PMBN] 0, read-out: MIC
[9] = EA 2 (porin+), [PMBN] MIC/8, read-out: MIC
[10] = EA 2 (porin+), [PMBN] MIC/10, read-out: MIC
[11] = Klebsiella aerogenes, EA 15038 (porin+), [PMBN] 0, read-out: MIC
[12] = Klebsiella aerogenes, EA 15038 (porin+), [PMBN] MIC/5, read-out: MIC

| SMILES | MIC (C. freundii 0403012; [PMBN] 0) | MIC (C. freundii 0403012; [PMBN] MIC/5) | MIC (C. freundii 0403012; [PMBN] MIC/8) | MIC (C. freundii 0403012; [PMBN] MIC/10) | MIC ([1]; [PMBN] 0) | MIC ([1]; [PMBN] MIC/5) | MIC ([1]; [PMBN] MIC/8) | MIC ([1]; [PMBN] MIC/10) | MIC ([2]; [PMBN] 0) | MIC ([2]; [PMBN] MIC/5) | MIC ([2]; [PMBN] MIC/8) | MIC ([2]; [PMBN] MIC/10) | MIC ([3]; [PMBN] 0) | MIC ([3]; [PMBN] MIC/5) | MIC ([3]; [PMBN] MIC/8) | MIC ([3]; [PMBN] MIC/10) | MIC (E. cloacae 9304026; [PMBN] 0) | MIC (E. cloacae 9304026; [PMBN] MIC/5) | MIC (E. cloacae 9304026; [PMBN] MIC/8) | MIC (E. cloacae 9304026; [PMBN] MIC/10) | further results |
| --- | --- | --- | --- | --- | --- | --- | --- | --- | --- | --- | --- | --- | --- | --- | --- | --- | --- | --- | --- | --- | --- |
| C[C@@H](O)[C@H]1C(=O)N2C(C(=O)O)=C(S[C@@H]3CN[C@H](C(=O)Nc4cccc(C(=O)O)c4)C3)[C@H](C)[C@H]12 [ETP, ertapenem] | 8 µg/mL | 4 µg/mL | 4 µg/mL | 8 µg/mL | 16 µg/mL | 64 µg/mL | 64 µg/mL | 64 µg/mL | 256 µg/mL | 256 µg/mL | 256 µg/mL | 256 µg/mL | 16 µg/mL | 8 µg/mL | 32 µg/mL | 32 µg/mL | 16 µg/mL | 8 µg/mL | 8 µg/mL | 4 µg/mL | MIC ([4]; [PMBN] 0): 8 µg/mL; MIC ([4]; [PMBN] MIC/5): 8 µg/mL; MIC ([4]; [PMBN] MIC/8): 16 µg/mL; MIC ([4]; [PMBN] MIC/10): 16 µg/mL; MIC ([5]; [PMBN] 0): 4 µg/mL; MIC ([5]; [PMBN] MIC/5): 8 µg/mL; MIC ([5]; [PMBN] MIC/8): 8 µg/mL; MIC ([5]; [PMBN] MIC/10): 8 µg/mL; MIC [6]: 0.125 µg/mL; MIC [6, 8]: 0.03 µg/mL; MIC [6, 9]: 0.25 µg/mL; MIC [6, 10]: 0.25 µg/mL; MIC ([7]; EA 15038 (porin+), [PMBN] MIC/8): 0.125 µg/mL; MIC ([7]; Klebsiella aerogenes): 0.125 µg/mL; MIC [7, 11]: 0.25 µg/mL; MIC [7, 12]: 0.06 µg/mL |
| C[C@@H](O)[C@H]1C(=O)N2C(C(=O)O)=C(SCCN=CN)C[C@H]12 [IM, imipenem] | 4 µg/mL | 1 µg/mL | 1 µg/mL | 2 µg/mL | 16 µg/mL | 16 µg/mL | 16 µg/mL | 16 µg/mL | 128 µg/mL | 256 µg/mL | 256 µg/mL | 128 µg/mL | 16 µg/mL | 8 µg/mL | 8 µg/mL | 16 µg/mL | 8 µg/mL | 4 µg/mL | 4 µg/mL | 4 µg/mL | MIC ([4]; [PMBN] 0): 32 µg/mL; MIC ([4]; [PMBN] MIC/5): 16 µg/mL; MIC ([4]; [PMBN] MIC/8): 16 µg/mL; MIC ([4]; [PMBN] MIC/10): 16 µg/mL; MIC ([5]; [PMBN] 0): 2 µg/mL; MIC ([5]; [PMBN] MIC/5): 2 µg/mL; MIC ([5]; [PMBN] MIC/8): 2 µg/mL; MIC ([5]; [PMBN] MIC/10): 4 µg/mL; MIC [6, 8]: 0.03 µg/mL; MIC ([6]; EA 2 (porin+), [PMBN] MIC/5, read-out: MIC): 0.03 µg/mL; MIC [6, 9]: 0.06 µg/mL; MIC [6, 10]: 0.06 µg/mL; MIC [7, 11]: 0.25 µg/mL; MIC [7, 12]: 0.25 µg/mL; MIC ([7]; Klebsiella aerogenes, EA 15038 (porin+), [PMBN] MIC/8, read-out: MIC): 0.5 µg/mL; MIC ([7]; Klebsiella aerogenes, EA 15038 (porin+), [PMBN] MIC/10, read-out: MIC): 0.5 µg/mL |
